# Experimental data taken from US9447093B2, “3,5-diarylazaindoles as DYRK1A protein inhibitors for the treatment of cognitive deficiencies associated with Down's syndrome and with Alzheimer's disease” (Centre National De La Recherche Scientifique, priority 2012, dated 2016).
# Assays:
# [1] = biological target: T1, DYRK1A protein (Homo sapiens, UniProt Q13627); assay: DYRK1A activity assay (fluorescein peptide substrate, UFLC with fluorescence detection); format: biochemical; settings: for IC50: DYRK1A protein, ΔDYRK1A enzyme, 37° C.
# T1 construct: the peptide phosphorylated by His-DYRK1A-ΔC is separated from the unphosphorylated peptide; His (N)
# [2] = system: CAMKII protein; assay: In vivo phosphorylation state of CAMKII in brain (slot-blot); settings: brain of TG animals (trisomy model for DYRK1A gene), intraperitoneal 1 mg/kg at t0 and t16 h, sacrifice t17-t18
# Method: (§1) To test in vivo the efficacy of these inhibitors, the effect of the compounds according to the invention on the phosphorylation state of two DYRK1A downstream targets in signaling pathways was measured: GSKIII beta protein (FIG. 1a) and CAMKII protein (FIG. 1b).
# (§2) These measurements were carried out in the brain of control animals (WT) and of animals of an animal model of trisomy for DYRK1A gene (TG).
# (§3) To that end, the compounds were administered by intraperitoneal injection in the amount of 1 mg/kg at t0 then at t16 (hours) and the animals were sacrificed at t17-t18. Brain proteins were then extracted and the amounts of GSKIIIbeta, pGSKIIIbeta, CAMKII and pCAMKII proteins were measured by a slot-blot technique with suitable antibodies.
# (§4) The results of these tests are presented in FIG. 1: the y-axis represents the ratio of phosphorylated protein to unphosphorylated protein measured on the untreated animals (WT and TG) and on the animals treated with the compounds according to the invention.
# [3] = system: GSKIII beta protein; assay: In vivo phosphorylation state of GSKIII beta in brain (slot-blot); settings: brain of TG animals (trisomy model for DYRK1A gene), intraperitoneal 1 mg/kg at t0 and t16 h, sacrifice t17-t18
# Method: as §1, §2, §3, §4
IC50 [1] [nM],Compound,correction of hypophosphorylated CAMKII (pCAMKII/CAMKII ratio) [2],correction of hyperphosphorylated GSKIIIbeta (pGSK/GSK ratio) [3],"IC50 values for known DYRK1A inhibitors ([1]; validation of the test, compared with literature radioactive kinase tests)"
3590,"Oc1ccccc1-c1cnc2[nH]cc(-c3ccccc3)c2c1 [Compound A, 3-phenyl-5-(2-hydroxyphenyl)-1H-pyrrolo[2,3-b]pyridine]",,,
160,"Oc1ccc(-c2cnc3[nH]cc(-c4ccccc4)c3c2)cc1O [E, 3-phenyl-5-(3,4-dihydroxyphenyl)-1H-pyrrolo[2,3-b]pyridine]",,,
105,"Oc1cccc(-c2cnc3[nH]cc(-c4cccc(O)c4)c3c2)c1 [Ia, 3-(3-hydroxyphenyl)-5-(3-hydroxyphenyl)-1H-pyrrolo[2,3-b]pyridine]",,,
23.1,"Oc1ccc(-c2cnc3[nH]cc(-c4ccc(O)cc4)c3c2)cc1 [Ib, 3-(4-hydroxyphenyl)-5-(4-hydroxyphenyl)-1H-pyrrolo[2,3-b]pyridine]",return the phosphorylation level to the value observed in the control animals,effective correction,
3,"Oc1ccc(-c2c[nH]c3ncc(-c4ccc(O)c(O)c4)cc23)cc1 [I′b, 3-(4-hydroxyphenyl)-5-(3,4-dihydroxyphenyl)-1H-pyrrolo[2,3-b]pyridine]",,,
9.3,"Oc1ccc(-c2cnc3[nH]cc(-c4ccc(O)c(F)c4)c3c2)cc1 [I′h, 3-(3-fluoro-4-hydroxyphenyl)-5-(4-hydroxyphenyl)-1H-pyrrolo[2,3-b]pyridine]",,,

# Further lines, the compound ahead of its results:
Compound,IC50 [1] [nM],correction of hypophosphorylated CAMKII (pCAMKII/CAMKII ratio) [2],correction of hyperphosphorylated GSKIIIbeta (pGSK/GSK ratio) [3],"IC50 values for known DYRK1A inhibitors ([1]; validation of the test, compared with literature radioactive kinase tests)"
"c1ccc(-c2cnc3[nH]cc(-c4ccccc4)c3c2)cc1 [B, 3-phenyl-5-phenyl-1H-pyrrolo[2,3-b]pyridine]",7490,,,
"Oc1ccc(-c2cnc3[nH]cc(-c4ccccc4)c3c2)cc1 [C, 3-phenyl-5-(4-hydroxyphenyl)-1H-pyrrolo[2,3-b]pyridine]",326,do not produce a sufficient correction,excessive correction,
"Oc1ccc(-c2cnc3[nH]cc(-c4ccccc4)c3c2)c(O)c1 [F, 3-phenyl-5-(2,4-dihydroxyphenyl)-1H-pyrrolo[2,3-b]pyridine]",154,,,
"COc1ccc(-c2c[nH]c3ncc(-c4ccc(O)cc4)cc23)cc1F [Ic, 3-(3-fluoro-4-methoxyphenyl)-5-(4-hydroxyphenyl)-1H-pyrrolo[2,3-b]pyridine]",41.5,,,
"Oc1ccc(-c2c[nH]c3ncc(-c4ccc(O)cc4O)cc23)cc1 [I′a, 3-(4-hydroxyphenyl)-5-(2,4-dihydroxyphenyl)-1H-pyrrolo[2,3-b]pyridine]",11.7,return the phosphorylation level to the value observed in the control animals,effective correction,
"Oc1ccc(-c2cnc3[nH]cc(-c4ccc(O)c(O)c4)c3c2)cc1O [I′c, 3-(3,4-dihydroxyphenyl)-5-(3,4-dihydroxyphenyl)-1H-pyrrolo[2,3-b]pyridine]",12.4,do not produce a sufficient correction,excessive correction,
"Oc1ccc(-c2cnc3[nH]cc(-c4ccc(O)c(O)c4)c3c2)c(O)c1 [I′d, 3-(3,4-dihydroxyphenyl)-5-(2,4-dihydroxyphenyl)-1H-pyrrolo[2,3-b]pyridine]",14.3,,,
"Oc1ccc(O)c(-c2cnc3[nH]cc(-c4ccc(O)c(O)c4)c3c2)c1 [I′e, 3-(3,4-dihydroxyphenyl)-5-(2,5-dihydroxyphenyl)-1H-pyrrolo[2,3-b]pyridine]",39.1,,,
epigallocatechin-3-gallate [reference compound],,,,Values similar to those of the literature
